Test system: IgE-mediated immediate hypersensitivity reaction-induced mice
Experiment: IgE-mediated immediate hypersensitivity reaction, ear thickness
Assay type: in vivo, Balb/c mice
Conditions: 100 μg tail vein, then 100 μg intraperitoneally daily from third day; DNFB antigen; 15 days
Procedure: Anti-allergic activity of the polypeptide according to the present invention was investigated. Balb/c mice (about 6 weeks old) were sensitized by injecting IgE antibody (5 μg) through the tail vain thereof. After 24 hours, the protein solution (100 μl) prepared by dissolving the peptide fragment of SEQ ID NO: 13 (100 μg) in PBS (100 μl) was injected through the tail vain of the sensitized mice. A 0.15% DNFB solution [2,4-d]nitrofluorobenzene in aceton: olive oil (4:1)] as an antigen was applied on each ear of the mice so as to induce IgE-mediated immediate hypersensitivity. In case of the negative control mice, only PBS (100 μl) was injected without treating a 0.15% DNFB solution. In case of the positive control mice, PBS (100 μl) was injected and then a 0.15% DNFB solution was treated. The changes in ear thickness were measured with a digital caliper every hour for 12 hours. Every day from the third day, the peptide fragment of SEQ ID NO: 13 (100 μg) was intraperitoneally injected to the test group mice, while only PBS was intraperitoneally injected to the control group mice. The changes in ear thickness were measured for 15 days.
FIG. 12 is the graph obtained by comparing the ear thickness changes of the test group mice and the positive control mice (increased by treating a 0.15% DNFB solution) with those of the negative control.

## SEQ ID NO: 13: Leu-Xaa-Asp with Xaa Ala; CD99L2 fragment 121~123, PBDX(or XG) fragment 27~29 (LAD; listed as Homo sapiens)
  ear thickness increments relative to the positive control group: remarkably decreased
